The target of one experiment is T1, ASK1/MAP3K5 (Homo sapiens, UniProt Q99683).
T1 construct: purchased Reaction Biology Corp. (Malvern, Pa.)
T1 sequence (Q99683 1-1374): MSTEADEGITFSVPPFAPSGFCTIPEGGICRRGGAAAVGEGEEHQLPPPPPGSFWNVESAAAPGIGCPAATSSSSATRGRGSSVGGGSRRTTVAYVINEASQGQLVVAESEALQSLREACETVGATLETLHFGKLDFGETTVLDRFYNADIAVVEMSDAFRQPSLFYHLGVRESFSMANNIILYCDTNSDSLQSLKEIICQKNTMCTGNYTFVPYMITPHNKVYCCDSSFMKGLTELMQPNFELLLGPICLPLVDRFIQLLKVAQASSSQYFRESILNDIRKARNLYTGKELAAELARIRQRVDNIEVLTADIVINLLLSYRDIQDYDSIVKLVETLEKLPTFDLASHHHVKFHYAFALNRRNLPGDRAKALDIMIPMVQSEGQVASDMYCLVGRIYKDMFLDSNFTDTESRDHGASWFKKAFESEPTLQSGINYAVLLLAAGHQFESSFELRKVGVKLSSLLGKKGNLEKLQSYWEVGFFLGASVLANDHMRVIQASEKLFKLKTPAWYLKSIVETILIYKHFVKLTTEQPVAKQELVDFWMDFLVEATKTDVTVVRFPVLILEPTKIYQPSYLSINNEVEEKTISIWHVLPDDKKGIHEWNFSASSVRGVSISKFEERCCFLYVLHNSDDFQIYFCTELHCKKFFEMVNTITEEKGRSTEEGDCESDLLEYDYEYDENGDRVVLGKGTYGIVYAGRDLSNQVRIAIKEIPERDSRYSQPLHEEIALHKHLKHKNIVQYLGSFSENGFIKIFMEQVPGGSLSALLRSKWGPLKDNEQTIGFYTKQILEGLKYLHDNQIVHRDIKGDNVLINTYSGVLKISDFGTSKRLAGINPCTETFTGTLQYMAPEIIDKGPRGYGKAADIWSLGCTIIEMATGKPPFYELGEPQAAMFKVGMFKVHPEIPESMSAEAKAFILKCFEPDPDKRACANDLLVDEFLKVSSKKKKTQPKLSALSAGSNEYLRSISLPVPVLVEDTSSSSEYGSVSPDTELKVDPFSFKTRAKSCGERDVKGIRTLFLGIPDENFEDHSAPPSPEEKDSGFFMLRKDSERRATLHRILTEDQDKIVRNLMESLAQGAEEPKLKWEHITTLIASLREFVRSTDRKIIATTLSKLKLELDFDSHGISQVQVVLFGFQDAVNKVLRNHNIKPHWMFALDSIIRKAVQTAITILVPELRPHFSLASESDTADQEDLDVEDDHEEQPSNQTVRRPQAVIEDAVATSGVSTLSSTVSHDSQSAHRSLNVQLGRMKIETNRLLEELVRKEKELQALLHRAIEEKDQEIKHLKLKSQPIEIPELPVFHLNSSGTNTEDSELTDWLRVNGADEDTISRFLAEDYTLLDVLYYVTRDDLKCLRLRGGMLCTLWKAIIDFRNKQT
The experiment can be described thus: ASK1 enzyme assay (ASK1/MAP3K5 assay by Reaction Biology Corp., 33P-ATP filter-binding). The experiment is classed as biochemical. The settings on record: 20 μM myelin basic protein and 10 μM ATP; class symbols. In outline:
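Human ASK1/MAP3K5 in pH 7.5 Hepes buffer with 20 μM myelin basic protein and 10 μM 33P-ATP; compounds preincubated with kinase 20 min at room temperature. Reaction ran 2 h at room temperature; substrate phosphorylation measured by P81 filter binding.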

Experiment [1] concerns the target T2, ASK1 T838 auto phosphorylation (Homo sapiens, UniProt Q99683).
T2 construct: ASK1-V5 tagged full length plasmid; expressed in transfected cells; host or cells: HEK-293T
T2 sequence (Q99683 1-1374): T1 sequence (Q99683 1-1374)
The experiment can be described thus: ASK1 (AUTO PHOS T838) assay in HEK-293T cells, MSD format. The experiment is classed as cell-based. Particulars: HEK-293T cells transfected with ASK1-V5, 1 hr compound incubation; class symbols. In outline: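 HEK-293T cells transiently expressing full-length V5-tagged ASK1, treated 1 h at 37 °C with compound (top 20 µM, 3-fold, 10 points). Lysates captured on anti-V5 and probed with anti-pASK1 T838 in MSD electrochemiluminescence format. IC50 from 4-parameter fit of normalized % activity.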

As a reminder, the IC50 is the concentration at which inhibition is half-maximal. `C[C@H]1CCCOc2ncc(Br)cc2C(=O)Nc2cccc(n2)-c2nncn21` (single isomer, unassigned) [Compound 1]: the IC50 (at ASK1/MAP3K5; in experiment [1]) was no more than 100 nM in each case.

On to `C[C@H]1CCCOc2ncccc2C(=O)Nc2cccc(n2)-c2nncn21` (single isomer, unassigned) [Compound 4], for which the IC50 on ASK1/MAP3K5 was no more than 100 nM; in experiment [1] it was 100 to 1000 nM.

Consider `C[C@H]1CCCOc2ncc(C(F)(F)F)cc2C(=O)Nc2cccc(n2)-c2nncn21` (single isomer, unassigned) [Compound 41], for which the IC50 on ASK1/MAP3K5 was no more than 100 nM; in experiment [1] it was 100 to 1000 nM.

Consider `C[C@H]1CCCOc2ncc(-c3ccncc3)cc2C(=O)Nc2cccc(n2)-c2nncn21` [Compound 17, (S)-10-Methyl-5^5-(pyridin-4-yl)-1^4H-6-oxa-3-aza-2(2,6),5(3,2)-dipyridina-1(3,4)-triazolacyclodecaphan-4-one], for which the IC50 (on ASK1/MAP3K5; in experiment [1]) was no more than 100 nM each time.

Regarding `C[C@H]1CCCOc2ncc(C#N)cc2C(=O)Nc2cccc(n2)-c2nncn21` [Compound 38, (S)-10-Methyl-4-oxo-1^4H-6-oxa-3-aza-2(2,6),5(3,2)-dipyridina-1(3,4)-triazolacyclodecaphane-5^5-carbonitrile], the IC50 was no more than 100 nM on ASK1/MAP3K5 and 100 to 1000 nM in experiment [1].

The values are drawn from patent publication US11897898B2, “Pyridine macrocycle compounds as ASK1 inhibiting agents” (BIOGEN MA INC., priority 2018, dated 2024).
